The text below walks through data of US6420174B1, “Method of producing organogenetic tissue from a plant of the genus Mentha” (Council of Scientific and Industrial Research, priority 2000, dated 2002).

In one data set the test system is Root pieces. As to the kind of experiment: Response of other explants in different media: root pieces. It counts as cell-based, Mentha arvensis. How it is done:
(§1) In the next phase, the callus was sub cultured in three different media: i) the basal medium MSO containing only the vitamins and minerals without any growth hormones; ii) MSA-2 medium which is MSO with 0.2 μg ml^−1 concentration of NAA and 5 μg ml^−1 of a cytokinin BAP; and iii) MT-80 medium which is MSO with only 80 μg ml^−1 menthol. On each kind of these media, an independent callus (50 mg ) or 5 independently regenerated shoots were inoculated per flask in 5 replications each. The experiment was conducted in the completely randomized design (CRD) fashion. Cultures were incubated and maintained at 25±2° C. and 400-600 lux light intensity with 16-hour photoperiod. The response was recorded every 24 hours over a period of one week and then weekly upto one month.
(§2) At this stage, the applicants wanted to know whether any other parts of the plant (explants) show similar response as callus and lead to direct regeneration. In the same experimental design we inoculated different parts of the plant in different media and the observations were recorded after 7 and 15 days.

The next data set has as its system Mentha arvensis callus. As to the kind of experiment: Shooting response of callus in different media. Type of data set: cell-based, Mentha arvensis L. cv. Himalaya. From the text:
(§3) The plant variety used in these experiments was cv. Himalaya (U.S. Pat No. PP10935) of Mentha arvensis L. (2n=96). The suckers of M. arvensis L. cv. Himalaya for multiplication of the plant material and future experimentation were obtained from CIMAP's gene bank. For callus production, the explant material was collected from the field grown plants and surface sterilized by washing sequentially with 2% detergent, distilled water containing a few drops of Savlon (Johnson and Johnson, India), 0 1% acidified mercuric chloride and autoclaved distilled water before inoculation. About 1 cm long internode pieces were inoculated in the Murashige and Skoog medium (Murashige T, Skoog F; 1962. A revised medium for rapid growth and bioassay with tobacco tissue cultures. Physiol Planta, 15:473-497) supplemented with 0.2 μg ml^−1 of an auxin (NAA, 1-napthalene acetic acid) and 5 μg ml^−1 of a cytokinin (BAP, benzyl aminopurine). […]
(§4) In the next phase, the callus was sub cultured in three different media: i) the basal medium MSO containing only the vitamins and minerals without any growth hormones; ii) MSA-2 medium which is MSO with 0.2 μg ml^−1 concentration of NAA and 5 μg ml^−1 of a cytokinin BAP; and iii) MT-80 medium which is MSO with only 80 μg ml^−1 menthol. […] The response was recorded every 24 hours over a period of one week and then weekly upto one month. […]

For a further data set, the system named is regenerated shoots. As to the kind of experiment: Characteristics and growth of regenerated shoots (leaf dimensions). It counts as cell-based, Mentha arvensis. The note with it: medium containing 80 μg ml^−1 of menthol. How it is done:
as §1
The leaves were also larger in the shoots regenerated on the medium containing 80 μg ml^−1 of menthol (Table 4).

Data set [1] deals with in vitro raised somaclones (shootlets). As to the kind of experiment: Earlier screening of in vitro raised somaclones in medium containing toxic concentrations of menthol. Type of data set: cell-based, Mentha arvensis. As to conditions: above 70 μg ml^−1 in the medium. Here is the method:
The applicants earlier developed a protocol for screening high menthol yielding plants by inoculating the in vitro raised somaclones in medium containing toxic concentrations of menthol in the tissue culture medium (Patent pending). In this procedure, screening of 2850 variants yielded 30 clones surviving 70 μg ml^−1 of menthol concentration in the medium out of which only 5 stable clones could be isolated which were of high menthol content type in comparison to the parent variety ‘Himalaya’ (U.S. Pat No. PP 10935). […] At this point, the applicants planned experiments to subject the callus directly to menthol selection instead of the regenerated shoots to save on time, space and labour. The logic was to isolate the tolerant cell lines if any, growing from this callus later.

Another data set concerns Internodes. The experiment in a line: Response of other explants in different media: internodes. As to conditions: 7 days. Type of data set: cell-based, Mentha arvensis. Here is the method: as §1, §2
For data set [2], the system named is regenerated shoots of Mentha arvensis. The experiment in a line: Response of regenerated shoots in different media. It counts as cell-based. The note with it: Mentha arvensis L. cv. Himalaya, 7 days.
Text: as §3, §4

For `CC1CCC(C(C)C)C(O)C1` (stereo not shown) [menthol], the “Response of root pieces” value in the data set with Root pieces (MSO + 60 ppm menthol, 7 days) is listed as “No change”; in the data set on Root pieces (MSO + 70 ppm menthol, 7 days) it was “No change”; in the data set with Root pieces (MSO + 70 ppm menthol, 15 days), “Wilting started”; in the data set on Root pieces (MSO + 80 ppm menthol, 7 days), “Wilting”; in the data set with Root pieces (MSO + 80 ppm menthol, 15 days), “Wilting”. The “Time to visible shoot induction from callus” value with Mentha arvensis callus (MSO medium containing menthol 80 μg ml^−1) lay in the range of 7 to 10 days. In addition, the “Response of transferred callus pieces” value in the data set on Mentha arvensis callus (text of Example 2, up to 21 days) is given as “induced shoot regeneration”. For the same compound, the “Growth of menthol-induced shoots compared to shoots growing on other media” value in the data set with regenerated shoots is given as “more vigorous in growth”. The “Effect on shootlets of increasing menthol concentration further” value in data set [1] is reported as “killed all the shootlets”. The Response of internodes entry was “Green” in the data set with Internodes (MSO + 60 ppm menthol), “Green” in the data set on Internodes (MSO + 70 ppm menthol) and “Wilting” in the data set on Internodes (MSO + 80 ppm menthol). In addition, the “Toxic concentration at which the regenerated shoots die” value in data set [2] is at least 80 µg/mL.
